Laboratory results: ChEMBL document CHEMBL4184108, “Bistachybotrysins A-C, three phenylspirodrimane dimers with cytotoxicity from Stachybotrys chartarum” (Bioorg Med Chem Lett, 2018)

Legend:
Assay type in all cases: functional, cell-based
[1] = system: HepG2; assay: Cytotoxicity against human HepG2 cells after 96 hrs by MTT assay; settings: HepG2, 96 h
[2] = system: BGC-823; assay: Cytotoxicity against human BGC823 cells after 96 hrs by MTT assay; settings: BGC-823, 96 h
[3] = system: NCI-H460; assay: Cytotoxicity against human NCI-H460 cells after 96 hrs by MTT assay; settings: NCI-H460, 96 h
[4] = system: Daoy; assay: Cytotoxicity against human DaOY cells after 96 hrs by MTT assay
[5] = system: HCT-116; assay: Cytotoxicity against human HCT116 cells after 96 hrs by MTT assay; settings: HCT-116, 96 h

Work on `C[C@@H]1CC[C@H]2C(C)(C)[C@H](O)CC[C@]2(C)[C@@]12Cc1c(O)cc3c(c1O2)[C@@H]1O[C@@H](Cc2c(cc(O)c4c2O[C@]2(C4)[C@H](C)CC[C@H]4C(C)(C)[C@H](O)[C@H](O)C[C@@]42C)[C@@H]1O)OC3` yielded an IC50 [1] of 11.9 µM, an IC50 [2] of 14.2 µM and an IC50 [3] of 7.5 µM. It also gave an IC50 [4] of 2.8 µM and an IC50 [5] of 6.7 µM.
`C[C@@H]1CC[C@H]2C(C)(C)[C@H](O)[C@H](O)C[C@]2(C)[C@@]12Cc1c(O)cc3c(c1O2)C[C@H]1OCc2cc(O)c4c(c2[C@H](O1)[C@H]3O)O[C@]1(C4)[C@H](C)CC[C@H]2C(C)(C)[C@H](O)[C@H](O)C[C@@]21C` gave an IC50 [1] of 19.3 µM, an IC50 [2] of 19.2 µM and an IC50 [3] of 12.3 µM. For the same molecule, the IC50 [4] was 14.6 µM and the IC50 [5] was 19.1 µM.
`CC(=O)O[C@@H]1[C@H](O)C[C@@]2(C)[C@@H](CC[C@@H](C)[C@]23Cc2c(O)cc4c(c2O3)C[C@H]2OCc3cc(O)c5c(c3[C@H](O2)[C@H]4O)O[C@]2(C5)[C@H](C)CC[C@H]3C(C)(C)[C@H](O)CC[C@@]32C)C1(C)C` gave an IC50 [1] of 19.3 µM, an IC50 [2] of 6.6 µM and an IC50 [3] of 5.5 µM. It also gave an IC50 [4] of 4.2 µM and an IC50 [5] of 18 µM.
`CC(=O)O[C@H]1C(=O)[C@@]2(C)[C@H]([C@H](OC(=O)c3ccccc3)[C@]3(O)C[C@H](OC(=O)[C@H](O)[C@@H](NC(=O)c4ccccc4)c4ccccc4)C(C)=C1C3(C)C)[C@]1(OC(C)=O)CO[C@@H]1C[C@@H]2O` [PACLITAXEL] gave an IC50 [1] of 0.0102 µM, an IC50 [2] of 0.002 µM and an IC50 [3] of 0.004 µM. It also gave an IC50 [4] of 0.002 µM and an IC50 [5] of 0.038 µM.
